Experiment [1] relates to Vero. Nature of the experiment: Cytotoxicity against African green monkey Vero cells by CellTiter 96 aqueous nonradioactive cell proliferation assay. The format is cell-based. The following applies: Chlorocebus sabaeus.
Experiment [2] has as its system Mycobacterium tuberculosis. The experiment can be described thus: Antitubercular activity against Mycobacterium tuberculosis H37Rv ATCC 27294 incubated for 1 week by MABA. The format is functional. The following applies: H37Rv ATCC 27294, 168 h. (Resazurin is reduced to fluorescent resorufin, in cell work by metabolically active cells.)
The subject of experiment [3] is Mycobacterium tuberculosis. The experiment can be described thus: Antitubercular activity against Mycobacterium tuberculosis H37Rv. The format is functional.

Each structure is given as a SMILES string. ≈ marks a conversion by molar mass, not a printed value. Some results are limits rather than exact numbers.

Take `CO[C@H]1/C=C/O[C@@]2(C)Oc3c(C)c(O)c4c(O)c(c(/C=N/N5CCN(C)CC5)c(O)c4c3C2=O)NC(=O)/C(C)=C\C=C\[C@H](C)[C@H](O)[C@@H](C)[C@@H](O)[C@@H](C)[C@H](OC(C)=O)[C@@H]1C` [RIFAMPIN]: the IC50 in experiment [1] worked out at 97.4 µg/mL (≈ 118 µM). In experiment [2], the MIC90 stood at 0.05 µg/mL (≈ 0.0608 µM).

On to `O=C1c2ccccc2-n2c1nc1ccccc1c2=O` [TRYPTANTHRIN], for which the IC50 in experiment [1] is > 100 µg/mL. For the same molecule, in experiment [3], the MIC was determined as 1 µg/mL (≈ 4.03 µM). Further, the MIC90 in experiment [2] worked out at 7.59 µg/mL (≈ 30.6 µM).

Usually IC50 stands for the point on the concentration scale where inhibition reaches its midpoint. A word on the MIC90: it is an inhibitory concentration at the 90% level, which refers to growth in some studies and to a panel of isolates in others. Broadly, the MIC is the smallest concentration in the dilution series that meets the test's criterion for growth inhibition.

The record behind these values is ChEMBL document CHEMBL4411263, “Isolation of Tryptanthrin and Reassessment of Evidence for Its Isobaric Isostere Wrightiadione in Plants of the Wrightia Genus” (J Nat Prod, 2019).
